Test results: patent US20240189279A1, “IMMUNOMODULATORY COMPOSITIONS AND METHODS OF USE THEREOF” (THE TEXAS A&M UNIVERSITY SYSTEM, priority 2022, published 2024)

Tested on: liver proteome
Experiment: Liver untargeted proteomics in WD mice
Assay type: in vivo, mice (male B6 129SF1/J)

SMILES: O=C([O-])Cc1c[nH]c2ccccc12.[Na+] [I3A, Indole-3-acetate sodium salt]
- liver protein abundance profile (PLS-DA) (WD-50 group vs WD): not significantly different from the WD group
- liver protein abundance profile (PLS-DA) (WD-100 group vs WD, p<0.001): significantly different from the WD group
